Results published in publication PMC11811597, “Phenomics‐Based Discovery of Novel Orthosteric Choline Kinase Inhibitors” (Angewandte Chemie (International Ed. in English), 2025).

Molecular target: T1, EHMT2 (G9a) (Homo sapiens, UniProt Q96KQ7)
T1 sequence (Q96KQ7 1-1210): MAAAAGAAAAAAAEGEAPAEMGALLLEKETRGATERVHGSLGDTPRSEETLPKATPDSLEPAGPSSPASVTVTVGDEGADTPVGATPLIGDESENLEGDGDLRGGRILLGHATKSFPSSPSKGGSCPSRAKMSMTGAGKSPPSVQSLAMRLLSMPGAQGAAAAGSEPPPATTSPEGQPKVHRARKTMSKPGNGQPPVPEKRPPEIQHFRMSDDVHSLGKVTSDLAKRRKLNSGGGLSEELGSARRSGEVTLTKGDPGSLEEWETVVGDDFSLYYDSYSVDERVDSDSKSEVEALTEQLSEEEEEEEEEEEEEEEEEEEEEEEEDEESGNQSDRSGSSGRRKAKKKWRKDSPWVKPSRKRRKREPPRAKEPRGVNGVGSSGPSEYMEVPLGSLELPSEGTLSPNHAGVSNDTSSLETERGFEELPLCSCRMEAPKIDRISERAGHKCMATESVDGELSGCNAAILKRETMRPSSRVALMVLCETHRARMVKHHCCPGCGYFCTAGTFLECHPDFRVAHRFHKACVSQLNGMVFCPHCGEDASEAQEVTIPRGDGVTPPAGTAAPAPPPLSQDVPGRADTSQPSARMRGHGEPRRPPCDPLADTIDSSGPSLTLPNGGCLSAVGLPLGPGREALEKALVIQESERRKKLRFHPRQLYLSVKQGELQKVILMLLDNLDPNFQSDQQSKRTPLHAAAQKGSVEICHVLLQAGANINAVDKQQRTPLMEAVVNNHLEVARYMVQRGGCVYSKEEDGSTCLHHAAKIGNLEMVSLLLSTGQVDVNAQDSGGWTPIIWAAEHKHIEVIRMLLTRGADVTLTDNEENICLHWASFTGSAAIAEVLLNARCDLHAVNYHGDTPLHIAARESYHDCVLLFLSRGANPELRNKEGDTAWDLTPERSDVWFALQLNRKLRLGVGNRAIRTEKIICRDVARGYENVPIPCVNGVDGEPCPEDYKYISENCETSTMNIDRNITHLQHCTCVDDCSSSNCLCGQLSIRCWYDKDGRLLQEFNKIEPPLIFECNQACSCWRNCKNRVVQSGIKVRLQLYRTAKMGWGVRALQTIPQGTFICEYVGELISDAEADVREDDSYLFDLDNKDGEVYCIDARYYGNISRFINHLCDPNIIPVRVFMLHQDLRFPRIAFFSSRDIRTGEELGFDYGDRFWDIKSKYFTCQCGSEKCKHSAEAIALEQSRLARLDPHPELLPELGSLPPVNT
Test: Competitive affinity-based chemoproteomics (UNC0965 matrix), MCF7 lysate
Type: binding
Set-up: endogenous in cells; host or cells: MCF7 whole cell lysate
Conditions: MCF7 lysates, 20 μM competitor
Method: A-366 and UNC0638 were purchased from Tocris. ARIAD and V-11-07-11 were purchased from Wuxi Apptec. UNC0737 and UNC0965 were synthesised as previously described.[1] Hemicholinium-3 and pyruvate kinase/lactic dehydrogenase enzymes were purchased from Sigma Aldrich. Aqueous and organic solvents were MS-grade and acquired by Sigma Aldrich unless stated otherwise.
MDA-MB-231, MCF7 and HEK293 cells were cultured in DMEM (Gibco, #11965092) supplemented with 10% FBS. K562 were cultured in IMDM (Gibco, #12440053) supplemented with 10% FBS. HepG2 were cultured in MEM (Gibco, #11095080) supplemented with 10 % FBS. […]
cultured in McCoy’s 5A (Sigma, M8403) supplemented with 10 % FBS and 1x GlutaMAX (Gibco, #35050061). Cells were maintained at 37 °C in a humidified 5% CO2 atmosphere. Peripheral blood mononuclear cells (PBMC) were isolated from healthy blood donors by density centrifugation. […]
Cell Titer-Glo® reagent was added to each well and total luminescence readings were performed within 15 min using the PHERAstar FSX (BMG Labtech). […]
Digested samples were analysed by nano-UPLC–MS/MS using a Dionex Ultimate 3000 nano UPLC fitted with an EASY spray column (75 μm × 500 mm, 2 μm particle size, Thermo Scientific), coupled to an Orbitrap Q Exactive instrument. […]

| Structure (SMILES) | competition for EHMT2 (G9a) binding to affinity matrix |
| --- | --- |
| COc1cc2c(NC3CCN(C(C)C)CC3)nc(C3CCCCC3)nc2cc1OCCCN1CCCC1 [UNC0638] | strong enrichment and competition |
| COc1cc2c(N(C)C3CCN(C(C)C)CC3)nc(C3CCCCC3)nc2cc1OCCCN1CCCC1 [UNC0737] | did not ablate binding |
